Data: patent US20260136597A1, “PHARMACEUTICAL COMPOSITION FOR PREVENTING OR TREATING A PERIODONTAL DISEASE OR DISLOCATED TRAUMATIC TOOTH” (HYSENSBIO Co., Ltd., priority 2020, published 2026)

Assays:
[1] = test system: BSP; assay: Real-time PCR, BSP gene expression in human periodontal ligament cells; type: cell-based; conditions: hPDL cells, average of three experiments
Experimental: Human periodontal ligament cells (hPDL cells) were isolated from periodontal ligament tissues from the wisdom teeth of 10 adults (18-22 years old) at Seoul National University Dental Hospital. Specifically, all experiments were performed with the consent of the patient after obtaining approval from the Hospital's Institutional Review Board, a periodontal ligament tissue attached to the root of a wisdom tooth was isolated and cut into double-sided pieces, placed in a 60 mm dish, and covered with a cover slip, and then cultured in Dulbecco's degenerated Eagle's Medium.

[2] = test system: CAP; conditions: hPDL cells; real-time PCR; average of three experiments
Experimental: Human periodontal ligament cells (hPDL cells) were isolated from periodontal ligament tissues from the wisdom teeth of 10 adults (18-22 years old) at Seoul National University Dental Hospital. Specifically, all experiments were performed with the consent of the patient after obtaining approval from the Hospital's Institutional Review Board, a periodontal ligament tissue attached to the root of a wisdom tooth was isolated and cut into double-sided pieces, placed in a 60 mm dish, and covered with a cover slip, and then cultured in Dulbecco's […] Eagle's Medium.
Total RNA from human periodontal ligament cells was isolated using a TRIzol reagent. cDNA was synthesized using 2 μg of total RNA, 1 μl of reverse transcriptase, and 0.5 μg of oligo (dT). cDNA of synthesized human periodontal ligament cells was used for a real-time polymerase chain reaction using primers shown in Table 2 below. A real-time polymerase chain reaction was performed in ABI PRISM 7500 sequence detection system (Applied Biosystems) using SYBR GREEN PCR Master Mix (Takara, Japan). The real-time polymerase chain reaction was performed at 94° C., 1 min; 95° C., 15 sec-60° C., 34 sec was performed under the condition of repeating 40 cycles. Results were analyzed using a comparative cycle threshold (CT) method.
Bone sialoprotein (BSP) and dentin matrix protein 1 (DMP1) genes are used as markers for the differentiation of osteoblast and cementoblast and are known as important genes for the calcification of a bone and cementum. In addition, a CAP (cementum attachment protein) gene is expressed in differentiated cementoblast and is known as a gene involved in the cementum attachment of a periodontal ligament fiber bundle.

[3] = test system: PERIOSTIN; assay: Real-time PCR, periostin gene expression in human periodontal ligament cells; type: cell-based; conditions: hPDL cells, average of three experiments
From the text: Periostin is a protein first discovered in a periodontal ligament and periosteum of a bone, and periostin is expressed in the periodontal ligament and mesenchymal of the developing tooth and is known to be involved in cell adhesion. According to several recent studies, periostin is an important regulator of periodontium formation, promotes collagen fiber production and migration of fibroblast and osteoblast, and it is known to play a pivotal role in the regeneration of periodontal ligament and alveolar bone after periodontal surgery to treat periodontal disease. Therefore, the effect of a peptide of Example 1 on the expression of periostin which is a marker gene for a periodontal ligament differentiation, and the type 3 collagen fiber gene (COL3) was confirmed.

[4] = test system: three-wall periodontal defect; assay: Periodontium regeneration in periodontium damage animal model, histological evaluation; type: in vivo, beagle dogs; conditions: beagle dog, 3 months
Experimental: Four beagle dogs (12-16 kg; […]) were anesthetized by inhalation of Geloran, intravenously injected with Zoletil (5 mg/kg) and Xylazine (0.2-0.5 mg/kg), and then treated with Lidocaine (Lidocaine 2% with 1:80,000 epinephrine). The 4th premolar tooth and the 2nd molar tooth were extracted from the mandible of the beagle dog, and then the dog waited for healing for 3 months. After 3 months of healing, three-wall periodontal defect was induced on distal and mesial surfaces of a 1st molar tooth. Then, a periodontal damage of 4×4×4 mm was formed with the buccal and distal bones remaining around the tooth root, the root alveolar bone is securely removed, tooth root planing was performed using a curette, and then an incisor groove was formed using a ½ round bur. Next, an experimental group was transplanted with a collagen sponge (a peptide solution obtained by dissolving a peptide in physiological saline at a concentration of 1 μg/μl was prepared, 50 μl of a peptide solution was added to the EP tube, and then was soaked for 5 minutes to prepare the collagen sponge) including a 50 μl of peptide (SEQ ID NO: 16 of group 2) prepared in Example 1 at a defect region, After the defect, only a negative control (NC) without any treatment and a collagen sponge (prepared by soaking a collagen sponge in 50 μl of physiological saline for 5 minutes) was placed on the inner bone wall of a bone defect and a transplanted negative control (NC+Plug) was sacrificed 3 months later, and histological evaluation was performed. After 3 months, a beagle dog was sacrificed by administering an excessive amount (90-120 mg/kg) of pentobarbital. A tooth of the beagle dog was extracted, fixed with 10% formalin, and then calcium was removed by adding 5% formic acid, molded, and embedded in paraffin, to obtain a tissue section with a thickness of 5 μm. The obtained tissue section was stained with hematoxylin and eosin or collagen stained (Masson's Trichrome Staining) to confirm periodontal ligament regeneration and then analyzed using by an optical microscope equipped with a digital camera (LEICA ICC50 camera, Germany). After extraction of a 4th premolar tooth and a 2nd molar tooth from the mandibles of 4 beagle dogs, they waited for 3 months to heal, and After 3 months of healing, the 3-mural periodontal defect was induced in distal and mesial surfaces of a 1st molar tooth. Then, periodontium damage of 4×4×4 mm was formed with the buccal and distal bones remaining around the tooth root, the root alveolar bone is securely removed, tooth root planing was performed using a curette, and then an incisor groove was formed. Next, the experimental group transplanted a collagen sponge containing 50 μg of the peptide (SEQ ID NO: 16) of Example 1 to the defect region, and after the defect, a negative control (NC) without any treatment and control (NC+Plug) transplanted by placing only a collagen sponge on the inner bone wall of the bone defect was sacrificed 3 months later for histological evaluation.

[5] = collagen sponge with 50 μg peptide, Masson's trichrome stain, FIG. 6
[6] = collagen sponge with 50 μg peptide, hematoxylin/eosin, FIG. 5

| Sequence | BSP gene expression, relative mRNA expression level compared to the control (Average) [1] | CAP gene expression, relative mRNA expression level compared to the control (Average) [2] | PERIOSTIN gene expression, relative mRNA expression level compared to the control (Average) [3] | further results |
| --- | --- | --- | --- | --- |
| KYKQKKKNYK [SEQ ID NO 5] | 2.67 | 2.67 | 2.67 | – |
| KYKQKKKSYK [SEQ ID NO 13] | 2.525 | 2.525 | 2.525 | – |
| KYKQKKRNYK [SEQ ID NO 7, Group 1 peptide, 8th amino acid asparagine (N)] | 2.215 | 2.451 | 2.329 | – |
| KYKQKKRSYK [SEQ ID NO 15] | 2.620 | 2.620 | 2.620 | – |
| KYKQKRKNYK [SEQ ID NO 6] | 2.705 | 2.705 | 2.705 | – |
| KYKQKRKSYK [SEQ ID NO 14] | 2.836 | 2.836 | 2.836 | – |
| KYKQKRRNYK [SEQ ID NO 8] | 2.021 | 2.021 | 2.021 | – |
| KYKQKRRSYK [SEQ ID NO 16, Group 2 peptide, 8th amino acid serine (S)] | 2.606 | 2.467 | 2.403 | Alveolar bone regeneration ([4]; collagen sponge with 50 μg peptide at defect, hematoxylin/eosin, FIG. 4): alveolar bone was regenerated in most of the damage periodontium; Incorporation of new periodontal ligament fiber bundle into alveolar bone and cementum [4, 5]: A new periodontal ligament fiber bundle was vertically incorporated in the newly formed alveolar bone and cementum; New cementum-like tissue formation [4, 5]: new cementum-like tissue was observed along a tooth root surface; New periodontal ligament-like tissue formation [4, 5]: new periodontal ligament-like tissue formation was also observed; Incorporation of new periodontal ligament into alveolar bone and cementum [4, 6]: New periodontal ligament was incorporated in the newly formed alveolar bone and cementum; New cementum-like tissue formation [4, 6]: new cementum-like tissue was observed along a tooth root surface; New periodontal ligament-like tissue formation [4, 6]: new periodontal ligament-like tissue formation was also observed |
| KYKQRKKNYK [SEQ ID NO 1] | 2.092 | 2.092 | 2.092 | – |
| KYKQRKKSYK [SEQ ID NO 9] | 2.211 | 2.211 | 2.211 | – |
| KYKQRKRNYK [SEQ ID NO 2] | 2.361 | 2.361 | 2.361 | – |
| KYKQRKRSYK [SEQ ID NO 10] | 2.811 | 2.811 | 2.811 | – |
| KYKQRRKNYK [SEQ ID NO 3] | 2.572 | 2.572 | 2.572 | – |
| KYKQRRKSYK [SEQ ID NO 11] | 2.362 | 2.362 | 2.362 | – |
| KYKQRRRNYK [SEQ ID NO 4] | 2.702 | 2.702 | 2.702 | – |
| KYKQRRRSYK [SEQ ID NO 12] | 2.211 | 2.211 | 2.211 | – |
